The target in assay [1] is T1, ST6GAL1 (Homo sapiens, UniProt P15907).
T1 construct: recombinant Human ST6GAL1 (R&D systems #7620-GT)
T1 sequence (P15907 27-406): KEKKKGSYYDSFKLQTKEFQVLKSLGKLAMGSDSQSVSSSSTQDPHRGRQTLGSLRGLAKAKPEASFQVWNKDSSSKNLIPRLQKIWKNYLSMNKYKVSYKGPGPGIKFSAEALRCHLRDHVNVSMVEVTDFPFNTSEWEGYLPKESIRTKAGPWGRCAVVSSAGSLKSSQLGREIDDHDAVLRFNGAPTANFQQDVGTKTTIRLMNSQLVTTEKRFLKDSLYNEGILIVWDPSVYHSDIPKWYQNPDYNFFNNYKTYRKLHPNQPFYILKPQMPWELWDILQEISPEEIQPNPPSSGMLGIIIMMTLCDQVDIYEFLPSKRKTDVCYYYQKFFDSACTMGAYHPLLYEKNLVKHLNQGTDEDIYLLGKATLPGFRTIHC
Description: HPLC assay of sialylation of Galβ[…]-4GlcNAc with CMP-Neu5Ac by recombinant enzyme. Format: biochemical.

Assay [2] addresses T2, ST3GAL3 (Homo sapiens, UniProt Q11203).
T2 construct: recombinant Human ST3GAL3 (R&D systems #10554-GT)
T2 sequence (Q11203 1-375): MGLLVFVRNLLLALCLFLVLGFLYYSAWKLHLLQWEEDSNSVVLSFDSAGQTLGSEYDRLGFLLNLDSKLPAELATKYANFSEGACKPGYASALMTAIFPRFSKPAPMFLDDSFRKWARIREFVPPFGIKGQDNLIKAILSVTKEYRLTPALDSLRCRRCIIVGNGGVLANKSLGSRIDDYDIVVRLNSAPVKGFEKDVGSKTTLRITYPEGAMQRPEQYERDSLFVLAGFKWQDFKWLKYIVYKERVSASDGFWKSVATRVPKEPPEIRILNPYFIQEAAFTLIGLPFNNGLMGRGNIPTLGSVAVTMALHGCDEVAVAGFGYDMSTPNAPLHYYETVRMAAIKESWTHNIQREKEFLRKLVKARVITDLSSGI
Nature of the assay: phosphatase-coupled sialyltransferase activity assay (EA002 kit) with recombinant enzyme. Format: biochemical.

Drawing on PMC11050067, “Development of a Novel, Potent, and Selective Sialyltransferase Inhibitor for Suppressing Cancer Metastasis” (International Journal of Molecular Sciences, 2024), this text covers IC50 for one compound.

For orientation: IC50 means the point on the concentration scale where inhibition reaches its midpoint.

`C[C@H](CCC(=O)OCCOCCOCCN=[N+]=[N-])C1CCC2C3CC[C@@H]4C[C@H](NC(=O)[C@H](CC(=O)O)Nc5ccc([N+](=O)[O-])c6nonc56)CC[C@]4(C)C3CC[C@@]21C` (some centres unmarked) [FCW393]: the IC50 in assay [1] worked out at 7.76 ± 0.06 µM; in assay [2], 9.45 ± 0.11 µM.
